Experimental data from patent publication US20250353891A1 (MEDIMMUNE LIMITED, priority 2022, published 2025).
Starred links: 1 amine or outer side, 2 acyl side, 3 side chain; linkers in the order of their positions; H or OH if unused. Non-standard residues stand in square brackets, D forms with d. Residues, ends and D or L forms follow the SMILES beside them. Groups on a side chain read outwards from the residue. *: point of attachment. γGlu = O=C(O)[C@H](CCC(=O)[*:2])N[*:1]; Stearoyl = CCCCCCCCCCCCCCCCCC(=O)*; Palmitoyl = CCCCCCCCCCCCCCCC(=O)*; αMeF = C[C@](N)(Cc1ccccc1)C(=O)O; PEG2 = NCCOCCOCCC(=O)O; Aib = CC(C)(N)C(=O)O

Tests used:
[1] = target: human glucagon receptor (hGCGR) (Homo sapiens, UniProt P47871); test: cAMP production (HTRF) in CHO cells expressing hGCGR; format: cell-based; design: expressed in transfected cells; settings: Table 6, peptides modified at position 17; cAMP in CHO hGCGR cells; geometric mean; read-out: hGluc-R EC50
human glucagon receptor (hGCGR), sequence (P47871 26-477): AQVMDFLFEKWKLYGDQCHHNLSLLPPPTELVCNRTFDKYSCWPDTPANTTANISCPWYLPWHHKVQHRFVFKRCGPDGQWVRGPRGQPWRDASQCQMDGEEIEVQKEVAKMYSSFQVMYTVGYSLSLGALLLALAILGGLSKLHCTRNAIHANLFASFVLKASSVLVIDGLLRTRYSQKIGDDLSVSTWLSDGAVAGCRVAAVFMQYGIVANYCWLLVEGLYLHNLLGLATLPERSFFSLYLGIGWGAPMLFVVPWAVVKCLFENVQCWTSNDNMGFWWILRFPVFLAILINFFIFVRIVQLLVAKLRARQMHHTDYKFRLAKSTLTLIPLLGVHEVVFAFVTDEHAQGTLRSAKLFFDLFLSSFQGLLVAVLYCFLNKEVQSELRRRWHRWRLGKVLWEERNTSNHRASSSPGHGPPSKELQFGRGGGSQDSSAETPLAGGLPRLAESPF
Method in brief: (§1)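 Potency values represent EC50 from 4-parameter logistic curves of HTRF % Delta F signal. Receptor-expressing CHO cells (hGCGR 2×10^5 cells/mL, hGLP-1R 1×10^5 cells/mL) were exposed for 30 min at room temperature before two-step cAMP detection.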

[2] = target: human GLP-1 receptor (hGLP-1R) (Homo sapiens, UniProt P43220); test: cAMP production (HTRF) in CHO cells expressing hGLP-1R; format: cell-based; design: expressed in transfected cells; settings: for % Relative Potency Ratio: Table 6, % GLP-1R activity relative to GLP-1 / % GlucR activity relative to glucagon; for EC50: Table 6, peptides modified at position 17, cAMP in CHO hGLP-1R cells, geometric mean, read-out: hGLP-1R EC50
human GLP-1 receptor (hGLP-1R), sequence (P43220 24-463): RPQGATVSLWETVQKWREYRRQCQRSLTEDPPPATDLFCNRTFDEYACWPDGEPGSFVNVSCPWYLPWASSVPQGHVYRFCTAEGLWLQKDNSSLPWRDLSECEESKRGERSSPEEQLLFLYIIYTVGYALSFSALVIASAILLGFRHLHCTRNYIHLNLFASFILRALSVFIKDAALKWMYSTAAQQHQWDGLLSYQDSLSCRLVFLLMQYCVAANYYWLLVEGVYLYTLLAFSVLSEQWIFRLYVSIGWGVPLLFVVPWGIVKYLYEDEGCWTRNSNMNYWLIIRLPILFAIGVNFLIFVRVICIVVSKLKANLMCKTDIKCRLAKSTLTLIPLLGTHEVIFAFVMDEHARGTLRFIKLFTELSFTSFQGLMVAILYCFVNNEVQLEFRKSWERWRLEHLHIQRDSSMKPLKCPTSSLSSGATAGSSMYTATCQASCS
Method in brief: as §1

EC50 [1]	% Relative Potency Ratio [2]	EC50 [2]	Compound
0.0332 nM	29.7	0.00221 nM	CCCCCCCCCCCCCCCC(=O)N[C@@H](CCC(=O)N[C@@H](CCC(=O)NCCOCCOCCC(=O)NCCOCCOCCC(=O)NCCCC[C@H](NC(=O)[C@H](CO)NC(=O)[C@H](CC(=O)O)NC(=O)[C@H](CC(C)C)NC(=O)C(C)(C)NC(=O)[C@H](CCCCN)NC(=O)[C@H](CO)NC(=O)[C@@H](NC(=O)[C@H](CC(=O)O)NC(=O)[C@H](CO)NC(=O)[C@@H](NC(=O)[C@](C)(Cc1ccccc1)NC(=O)[C@H](CO)NC(=O)CNC(=O)[C@H](CCC(N)=O)NC(=O)[C@H](CO)NC(=O)[C@@H](N)Cc1c[nH]cn1)[C@@H](C)O)C(C)C)C(=O)N[C@@H](C)C(=O)N[C@@H](C)C(=O)N[C@@H](CCC(N)=O)C(=O)N[C@@H](CC(=O)O)C(=O)N[C@@](C)(Cc1ccccc1)C(=O)N[C@H](C(=O)N[C@@H](CCC(N)=O)C(=O)NC(C)(C)C(=O)N[C@H](C(=O)N[C@@H](C)C(=O)N[C@@H](CC(N)=O)C(N)=O)[C@@H](C)CC)C(C)C)C(=O)O)C(=O)O [Peptide 99] (H-HSQGS[αMeF]TSDVSK[Aib]LDSK([PEG2-PEG2-γGlu-γGlu-Palmitoyl])AAQD[αMeF]VQ[Aib]IAN-NH2; N-terminus assumed)
0.0405 nM	310.3		CCCCCCCCCCCCCCCCCC(=O)N[C@@H](CCC(=O)N[C@@H](CCC(=O)NCCOCCOCCC(=O)NCCOCCOCCC(=O)NCCCC[C@H](NC(=O)[C@H](CO)NC(=O)[C@H](CC(=O)O)NC(=O)[C@H](CC(C)C)NC(=O)C(C)(C)NC(=O)[C@H](CCCCN)NC(=O)[C@H](CO)NC(=O)[C@@H](NC(=O)[C@H](CC(=O)O)NC(=O)[C@H](CO)NC(=O)[C@@H](NC(=O)[C@](C)(Cc1ccccc1)NC(=O)[C@H](CO)NC(=O)CNC(=O)[C@H](CCC(N)=O)NC(=O)C(C)(C)NC(=O)[C@@H](N)Cc1c[nH]cn1)[C@@H](C)O)C(C)C)C(=O)N[C@@H](C)C(=O)N[C@@H](C)C(=O)N[C@@H](CCC(N)=O)C(=O)N[C@@H](CC(=O)O)C(=O)N[C@@](C)(Cc1ccccc1)C(=O)N[C@H](C(=O)N[C@@H](CCC(N)=O)C(=O)NC(C)(C)C(=O)N[C@H](C(=O)N[C@@H](C)C(=O)N[C@@H](CC(N)=O)C(N)=O)[C@@H](C)CC)C(C)C)C(=O)O)C(=O)O [Peptide 100] (H-H[Aib]QGS[αMeF]TSDVSK[Aib]LDSK([PEG2-PEG2-γGlu-γGlu-Stearoyl])AAQD[αMeF]VQ[Aib]IAN-NH2; N-terminus assumed)
0.0456 nM	0.4	0.247 nM	CCCCCCCCCCCCCCCCCC(=O)N[C@@H](CCC(=O)N[C@@H](CCC(=O)NCCOCCOCCC(=O)NCCOCCOCCC(=O)NCCCC[C@H](NC(=O)[C@H](CO)NC(=O)[C@H](CC(=O)O)NC(=O)[C@H](CC(C)C)NC(=O)C(C)(C)NC(=O)[C@H](CCCCN)NC(=O)[C@H](CO)NC(=O)[C@@H](NC(=O)[C@H](CC(=O)O)NC(=O)[C@H](CO)NC(=O)[C@@H](NC(=O)[C@](C)(Cc1ccccc1)NC(=O)[C@H](CO)NC(=O)CNC(=O)[C@H](CCC(N)=O)NC(=O)[C@@H](NC(=O)[C@@H](N)Cc1c[nH]cn1)[C@@H](C)O)[C@@H](C)O)C(C)C)C(=O)N[C@@H](C)C(=O)N[C@@H](C)C(=O)N[C@@H](CCC(N)=O)C(=O)N[C@@H](CC(=O)O)C(=O)N[C@@](C)(Cc1ccccc1)C(=O)N[C@H](C(=O)N[C@@H](CCC(N)=O)C(=O)NC(C)(C)C(=O)N[C@H](C(=O)N[C@@H](C)C(=O)N[C@@H](CC(N)=O)C(N)=O)[C@@H](C)CC)C(C)C)C(=O)O)C(=O)O [Peptide 104] (H-HTQGS[αMeF]TSDVSK[Aib]LDSK([PEG2-PEG2-γGlu-γGlu-Stearoyl])AAQD[αMeF]VQ[Aib]IAN-NH2; N-terminus assumed)

The remaining lines, values behind:

Compound	EC50 [1]	% Relative Potency Ratio [2]	EC50 [2]
CCCCCCCCCCCCCCCCCC(=O)N[C@@H](CCC(=O)N[C@@H](CCC(=O)NCCOCCOCCC(=O)NCCOCCOCCC(=O)NCCCC[C@H](NC(=O)[C@H](CO)NC(=O)[C@H](CC(=O)O)NC(=O)[C@H](CC(C)C)NC(=O)C(C)(C)NC(=O)[C@H](CCCCN)NC(=O)[C@H](CO)NC(=O)[C@@H](NC(=O)[C@H](CC(=O)O)NC(=O)[C@H](CO)NC(=O)[C@@H](NC(=O)[C@](C)(Cc1ccccc1)NC(=O)[C@H](CO)NC(=O)CNC(=O)[C@H](CCC(N)=O)NC(=O)[C@H](CO)NC(=O)[C@@H](N)Cc1c[nH]cn1)[C@@H](C)O)C(C)C)C(=O)N[C@@H](C)C(=O)N[C@@H](C)C(=O)N[C@@H](CCC(N)=O)C(=O)N[C@@H](CC(=O)O)C(=O)N[C@@](C)(Cc1ccccc1)C(=O)N[C@H](C(=O)N[C@@H](CCC(N)=O)C(=O)NC(C)(C)C(=O)N[C@@H](CC(C)C)C(=O)N[C@@H](CO)C(=O)N[C@@H](CCC(=O)O)C(N)=O)C(C)C)C(=O)O)C(=O)O [Peptide 94] (H-HSQGS[αMeF]TSDVSK[Aib]LDSK([PEG2-PEG2-γGlu-γGlu-Stearoyl])AAQD[αMeF]VQ[Aib]LSE-NH2; N-terminus assumed)	0.0054 nM	20.7	
CCCCCCCCCCCCCCCCCC(=O)N[C@@H](CCC(=O)N[C@@H](CCC(=O)NCCOCCOCCC(=O)NCCOCCOCCC(=O)NCCCC[C@H](NC(=O)[C@H](CO)NC(=O)[C@H](CC(=O)O)NC(=O)[C@H](CC(C)C)NC(=O)C(C)(C)NC(=O)[C@H](CCCCN)NC(=O)[C@H](CO)NC(=O)[C@@H](NC(=O)[C@H](CC(=O)O)NC(=O)[C@H](CO)NC(=O)[C@@H](NC(=O)[C@](C)(Cc1ccccc1)NC(=O)[C@H](CO)NC(=O)CNC(=O)[C@H](CCC(N)=O)NC(=O)[C@H](CO)NC(=O)[C@@H](N)Cc1c[nH]cn1)[C@@H](C)O)C(C)C)C(=O)N[C@@H](C)C(=O)N[C@@H](C)C(=O)N[C@@H](CCC(N)=O)C(=O)N[C@@H](CC(=O)O)C(=O)N[C@@](C)(Cc1ccccc1)C(=O)N[C@H](C(=O)N[C@@H](CCC(N)=O)C(=O)NC(C)(C)C(=O)N[C@@H](CC(C)C)C(=O)N[C@@H](C)C(=O)N[C@@H](CC(N)=O)C(=O)N[C@H](C(N)=O)[C@@H](C)O)C(C)C)C(=O)O)C(=O)O [Peptide 95] (H-HSQGS[αMeF]TSDVSK[Aib]LDSK([PEG2-PEG2-γGlu-γGlu-Stearoyl])AAQD[αMeF]VQ[Aib]LANT-NH2; N-terminus assumed)	0.0125 nM	40.6	
CCCCCCCCCCCCCCCCCC(=O)N[C@@H](CCC(=O)N[C@@H](CCC(=O)NCCOCCOCCC(=O)NCCOCCOCCC(=O)NCCCC[C@H](NC(=O)[C@H](CO)NC(=O)[C@H](CC(=O)O)NC(=O)[C@H](CC(C)C)NC(=O)C(C)(C)NC(=O)[C@H](CCCCN)NC(=O)[C@H](CO)NC(=O)[C@@H](NC(=O)[C@H](CC(=O)O)NC(=O)[C@H](CO)NC(=O)[C@@H](NC(=O)[C@](C)(Cc1ccccc1)NC(=O)[C@H](CO)NC(=O)CNC(=O)[C@H](CCC(N)=O)NC(=O)[C@H](CO)NC(=O)[C@@H](N)Cc1c[nH]cn1)[C@@H](C)O)C(C)C)C(=O)N[C@@H](C)C(=O)N[C@@H](C)C(=O)N[C@@H](CCC(N)=O)C(=O)N[C@@H](CC(=O)O)C(=O)N[C@@](C)(Cc1ccccc1)C(=O)N[C@H](C(=O)N[C@@H](CCC(N)=O)C(=O)NC(C)(C)C(=O)N[C@H](C(=O)N[C@H](C(=O)N[C@@H](CCC(=O)O)C(N)=O)[C@@H](C)CC)[C@@H](C)CC)C(C)C)C(=O)O)C(=O)O [Peptide 98] (H-HSQGS[αMeF]TSDVSK[Aib]LDSK([PEG2-PEG2-γGlu-γGlu-Stearoyl])AAQD[αMeF]VQ[Aib]IIE-NH2; N-terminus assumed)	0.0541 nM	43.8	0.00244 nM
CCCCCCCCCCCCCCCCCC(=O)N[C@@H](CCC(=O)N[C@@H](CCC(=O)NCCOCCOCCC(=O)NCCOCCOCCC(=O)NCCCC[C@H](NC(=O)[C@H](CO)NC(=O)[C@H](CC(=O)O)NC(=O)[C@H](CC(C)C)NC(=O)C(C)(C)NC(=O)[C@H](CCCCN)NC(=O)[C@H](CO)NC(=O)[C@@H](NC(=O)[C@H](CC(=O)O)NC(=O)[C@H](CO)NC(=O)[C@@H](NC(=O)[C@](C)(Cc1ccccc1)NC(=O)[C@H](CO)NC(=O)CNC(=O)[C@H](CCC(N)=O)NC(=O)C(C)(C)NC(=O)[C@@H](N)Cc1c[nH]cn1)[C@@H](C)O)C(C)C)C(=O)N[C@@H](C)C(=O)N[C@@H](C)C(=O)N[C@@H](CCC(N)=O)C(=O)N[C@@H](CC(=O)O)C(=O)N[C@@](C)(Cc1ccccc1)C(=O)N[C@H](C(=O)N[C@@H](CCC(N)=O)C(=O)N[C@@H](Cc1c[nH]c2ccccc12)C(=O)N[C@H](C(=O)N[C@@H](C)C(=O)N[C@@H](CC(N)=O)C(N)=O)[C@@H](C)CC)C(C)C)C(=O)O)C(=O)O [Peptide 103] (H-H[Aib]QGS[αMeF]TSDVSK[Aib]LDSK([PEG2-PEG2-γGlu-γGlu-Stearoyl])AAQD[αMeF]VQWIAN-NH2; N-terminus assumed)	0.0594 nM	220.8	
CCCCCCCCCCCCCCCC(=O)N[C@@H](CCC(=O)N[C@@H](CCC(=O)NCCOCCOCCC(=O)NCCOCCOCCC(=O)NCCCC[C@H](NC(=O)[C@H](CO)NC(=O)[C@H](CC(=O)O)NC(=O)[C@H](CC(C)C)NC(=O)C(C)(C)NC(=O)[C@H](CCCCN)NC(=O)[C@H](CO)NC(=O)[C@@H](NC(=O)[C@H](CC(=O)O)NC(=O)[C@H](CO)NC(=O)[C@@H](NC(=O)[C@](C)(Cc1ccccc1)NC(=O)[C@H](CO)NC(=O)CNC(=O)[C@H](CCC(N)=O)NC(=O)[C@H](CO)NC(=O)[C@@H](N)Cc1c[nH]cn1)[C@@H](C)O)C(C)C)C(=O)N[C@@H](CCC(N)=O)C(=O)N[C@@H](C)C(=O)N[C@@H](CCC(N)=O)C(=O)N[C@@H](CC(=O)O)C(=O)N[C@@](C)(Cc1ccccc1)C(=O)N[C@H](C(=O)N[C@@H](CCC(N)=O)C(=O)NC(C)(C)C(=O)N[C@H](C(=O)N[C@@H](C)C(=O)N[C@@H](CC(N)=O)C(N)=O)[C@@H](C)CC)C(C)C)C(=O)O)C(=O)O [Peptide 105] (H-HSQGS[αMeF]TSDVSK[Aib]LDSK([PEG2-PEG2-γGlu-γGlu-Palmitoyl])QAQD[αMeF]VQ[Aib]IAN-NH2)	0.121 nM	3.7	0.0648 nM
